{"source": "patent US4513009A", "about": "“Aminoacid derivatives and their therapeutic applications” (priority 1980, dated 1985)", "key": {"[1]": {"test_system": "phenylbenzoquinone-induced pain", "assay": "Phenylbenzoquinone or writhing test", "type": "in vivo", "details": "0.7 mg/kg i.v.; vs controls p<0.01", "description": "3--Phenylbenzoquinone or \"writhing test\" according to the method of SIEGMUND and co-workers (Proc. Soc. Expert. Biol. Med. 1957, 95, 729-731)."}, "mice [2]": {"test_system": "mice", "assay": "Subacute toxicity, 3 weeks in mice, with reversibility test", "details": "50 mg/kg 3 times/day, vs solvent controls"}, "[3]": {"test_system": "licking reflex of mice on a plate heated at 55° C.", "assay": "Hot-plate test (55° C.): specific antalgic effect", "type": "in vivo", "details": "intravenous", "method": "Licking reflex of mice on a plate heated at 55° C. according to the method of Jacob. and co-workers (Arch. Int. Pharmacodyn. 122, 287-300, 1959: 133, 296-300, 1961).\n(b) Specific antalgic effect"}, "[4]": {"molecular_target": "enkephalinase (enkephalin dipeptidylcarboxypeptidase)", "assay": "Determination of enkephalinasic (enkephalin dipeptidylcarboxypeptidasic) activity and effect of inhibitors, striatal membrane fraction, 3H-leucine-enkephalin", "type": "biochemical, rats or mice", "details": "10 nM leucine-enkephalin 3H, 25° C., pH 7.4, 15 mn, read-out: 50% inhibitory concentration", "method": "Determination of the \"enkephalinasic\" (enkephalin dipeptidylcarboxypeptidasic) activity and determination of the effect of inhibitors.\nThe enzyme preparation used is a membrane fraction from the striatum of rats or mice.\nThis fraction is obtained by homogenization at 4° C. in 20 volumes Tris-HCl buffer 0.05M (pH 7.4) followed by two successive centrifugations (1000 g×min. and 200,000 g×min.) at the end of which the sediment of the second centrifugation is retained. It is washed by re-suspension in 10 ml of the buffer followed by centrifugation (200,000 g×min) and the resulting sediment is in turn washed superficially to complete the removal of the soluble enzymes. The resulting membrane fraction is taken up into the buffer at 4° C., to obtain a suspension comprising about 1.5 mg proteins per ml.\nAn aliquot sample (50 μl) of the membrane suspension is then incubated in a final volume of 100 μl at 25° C. in the presence of 10 nM leucine-enkephalin ^3 H (39 Ci/mmole), previously purified by column chromatography over Porapak Q (100-120 mesh, Waters Assoc.) and […] puromycine, an aminopeptidase inhibitor. Incubation time is generally set at 15 mn. in order to determine the initial rate of the formation of tripeptide Tyr-Gly-Gly-^3 H characteristic of the enkephalin dipeptidylcarboxypeptidasic (enkephalinasic) activity.\nDetermination of the radioactivity of the tripeptide is effected by liquid scintillation spectrometry. […]"}, "mice [5]": {"test_system": "mice", "details": "mouse, in vivo"}}, "data": [{"smiles": "CC(=O)SCC(Cc1ccccc1)C(=O)NCC(=O)OCc1ccccc1", "note": "(stereo not drawn) [Compound 53, N-[3-Acetylthio-2-benzylpropanoyl]glycine benzyl ester]", "values": [{"measurement": "protection from phenylbenzoquinone-induced pain", "setting": "[1]", "value": "protect the treated animals from phenylbenzoquinone-induced pain, with a significant difference with respect to the controls, p<0.01"}, {"measurement": "weight of the organs and their anatomic-pathologic examination", "setting": "mice [2]", "value": "failed to show any difference with respect to the solvent controls"}, {"measurement": "ED50", "setting": "[3]; Mus musculus, hot plate 55° C.", "value": 3, "unit": "mg/kg"}, {"measurement": "antalgic effect in the hot (55° C.) plate test", "setting": "[3]", "value": "have an antalgic effect"}, {"measurement": "IC50", "setting": "[4]", "value": 380, "unit": "nM"}, {"measurement": "tolerance, habit-forming and weaning phenomena (reversibility test)", "setting": "mice [5]", "value": "no sign of tolerance, of habit-forming, and no weaning phenomena could be observed"}]}]}
